Eleven compounds from US20250101041A1, “POSITIVE ALLOSTERIC MODULATORS OF THE MUSCARINIC ACETYLCHOLINE RECEPTOR M4” (Vanderbilt University, priority 2022, published 2025) can be followed below.

The target in this assay is T1, human mAChR M4 (Homo sapiens, UniProt P08173).
T1 construct: expressed in transfected cells; host or cells: CHO-K1 (American Type Culture Collection), stably expressing hM4 and Gqi5
T1 sequence (P08173 1-479): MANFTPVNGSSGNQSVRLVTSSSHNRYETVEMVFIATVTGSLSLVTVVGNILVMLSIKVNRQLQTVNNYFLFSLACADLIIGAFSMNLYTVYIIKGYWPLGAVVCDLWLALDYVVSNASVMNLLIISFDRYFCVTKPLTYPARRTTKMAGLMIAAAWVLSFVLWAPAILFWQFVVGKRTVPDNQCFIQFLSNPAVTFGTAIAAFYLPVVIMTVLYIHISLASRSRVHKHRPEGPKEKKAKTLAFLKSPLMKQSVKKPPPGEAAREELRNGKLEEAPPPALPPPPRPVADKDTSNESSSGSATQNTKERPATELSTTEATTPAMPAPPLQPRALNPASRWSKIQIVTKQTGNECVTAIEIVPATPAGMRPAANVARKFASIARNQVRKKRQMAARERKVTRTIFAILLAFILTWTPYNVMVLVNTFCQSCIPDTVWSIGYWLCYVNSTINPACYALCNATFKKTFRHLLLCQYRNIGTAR
Put plainly: mAChR M4 cell-based functional assay: calcium mobilization (Fluo-4, FDSS), potentiation of EC20 acetylcholine response in hM4-Gqi5 CHO-K1 cells. The following applies: human M4; for Emax at 30 µM: CHO-K1, % ACh maximum at 30 μM; for EC50: potentiation of EC20 acetylcholine response, calcium mobilization. The essentials: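 Readout is the fluorescence-ratio rise at 1 Hz on FDSS, with PAM activity taken as concentration-dependent enhancement of the EC20 acetylcholine response, fitted four-parameter for EC50/Emax. hM4-Gqi5 CHO-K1 cells carried Fluo-4 AM dye; test compounds (11 points, 1:3) preceded EC20 acetylcholine additions at 144 s and 230 s.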
On the technique in general: Calcium assays in cells follow changes in intracellular calcium, usually with a dye or a luminescent sensor.

Consider `COCc1cc(=O)n2nc(N3CCc4ncc(-c5cc(F)ccc5C)cc4C3)c(C)cc2n1` [Compound 1-332, 7-(3-(5-fluoro-2-methylphenyl)-7,8-dihydro-1,6-naphthyridin-6(5H)-yl)-2-(methoxymethyl)-8-methyl-4H-pyrimido[1,2-b] pyridazin-4-one], for which the Emax – broadly, the size of the effect at its maximum, as opposed to the concentration needed – at 30 µM was found to be 67% and the EC50 (as a rule, the concentration giving half of the maximal effect) turned out to be 244 nM.
In the case of `Cc1cc(=O)n2nc(N3CCc4ncc(-c5cnc(Cl)cc5C)cc4C3)c(C)c(C)c2n1` [Compound 1-197, 7-(3-(6-chloro-4-methylpyridin-3-yl)-7,8-dihydro-1,6-naphthyridin-6(5H)-yl)-2,8,9-trimethyl-4H-pyrimido[1,2-b]pyridazin-4-one], the maximal effect (Emax) at 30 µM is 81% and the EC50 was 275 nM.
On to `Cc1cc2nccc(=O)n2nc1N1CCc2ncc(NS(=O)(=O)C3CC3)cc2C1` [Compound 2-118, N-(6-(8-methyl-4-oxo-4H-pyrimido[1,2-b]pyridazin-7-yl)-5,6,7,8-tetrahydro-1,6-naphthyridin-3-yl)cyclopropanesulfonamide], for which the Emax at 30 µM was 48% and the EC50 was determined as 3050 nM.
In the case of `Cc1cc2nc(C(=O)N3CCC(c4cccnc4)C3)cc(=O)n2nc1N1CCc2ncc(C(F)(F)F)cc2C1` (stereo not shown) [Compound 1-43, 8-methyl-2-(3-(pyridin-3-yl)pyrrolidine-1-carbonyl)-7-(3-(trifluoromethyl)-7,8-dihydro-1,6-naphthyridin-6(5H)-yl)-4H-pyrimido[1,2-b]pyridazin-4-one], the Emax at 30 µM came out at 92% and the EC50 was 612 nM.
Consider `Cc1cc2nc(C(=O)NC3CN(CC(F)(F)F)C3)cc(=O)n2nc1N1CCc2ncc(C(F)(F)F)cc2C1` [Compound 1-55, 8-methyl-4-oxo-N-(1-(2,2,2-trifluoroethyl)azetidin-3-yl)-7-(3-(trifluoromethyl)-7,8-dihydro-1,6-naphthyridin-6(5H)-yl)-4H-pyrimido[1,2-b]pyridazine-2-carboxamide], for which the Emax at 30 µM is 94% and the EC50 was determined as 481 nM.
On the same counts, the results for `COc1cc(C)c(-c2cnc3c(c2)CN(c2nn4c(=O)ccnc4cc2C)CC3)cn1` [Compound 1-387, 7-(3-(6-methoxy-4-methylpyridin-3-yl)-7,8-dihydro-1,6-naphthyridin-6(5H)-yl)-8-methyl-4H-pyrimido[1,2-b] pyridazin-4-one] are 92% and 46 nM.
In the same order, the values of `Cc1cc2nc(C)c(C)c(=O)n2nc1N1CCc2ncc(Nc3ccncc3F)cc2C1` [Compound 2-158, 7-(3-((3-fluoropyridin-4-yl)amino)-7,8-dihydro-1,6-naphthyridin-6(5H)-yl)-2,3,8-trimethyl-4H-pyrimido[1,2-b]pyridazin-4-one] are 91% and 1 nM.
With `Cc1cc(F)c(F)cc1-c1cnc2c(c1)CN(c1nn3c(=O)ccnc3c(C)c1C)CC2` [Compound 1-446, 7-(3-(4,5-difluoro-2-methylphenyl)-7,8-dihydro-1,6-naphthyridin-6(5H)-yl)-8,9-dimethyl-4H-pyrimido[1,2-b]pyridazin-4-one], the Emax at 30 µM was 85% and the EC50 was 574 nM.
On to `Cc1cc2nccc(=O)n2nc1N1CCc2ncc(-c3ccc(C#N)nc3C)cc2C1` [Compound 1-421, 6-methyl-5-(6-(8-methyl-4-oxo-4H-pyrimido[1,2-b]pyridazin-7-yl)-5,6,7,8-tetrahydro-1,6-naphthyridin-3-yl)picolinonitrile], for which the Emax at 30 µM is 97% and the concentration giving a half-maximal response (EC50) was found to be 2420 nM.
Regarding `COc1ccsc1-c1cnc2c(c1)CN(c1nn3c(=O)cc(C)nc3c(C)c1C)CC2` [Compound 1-303, 7-(3-(3-methoxythiophen-2-yl)-7,8-dihydro-1,6-naphthyridin-6(5H)-yl)-2,8,9-trimethyl-4H-pyrimido[1,2-b]pyridazin-4-one], the Emax at 30 µM worked out at 96% and the EC50 stood at 192 nM.
As to `COCc1cc(=O)n2nc(N3Cc4cc(C(F)(F)F)cnc4C(C)C3)c(C)c(C)c2n1` (single isomer, unassigned) [Compound 1-376], the Emax at 30 µM amounted to 106% and the concentration giving a half-maximal response (EC50) amounted to 325 nM.
